This passage reports IC50 results from US5354767A, “Renin inhibiting polyhydroxy-monoamides” (Bio-Mega, Inc., priority 1991, dated 1994).

SMILES strings stand for the structures.

One assay addresses T1, human renin (Homo sapiens, UniProt P00797).
T1 construct: A human plasma pool is used as the source of both the substrate (angiotensinogen) and the enzyme (renin); from tissue; host or cells: human plasma pool
T1 sequence (P00797 67-406): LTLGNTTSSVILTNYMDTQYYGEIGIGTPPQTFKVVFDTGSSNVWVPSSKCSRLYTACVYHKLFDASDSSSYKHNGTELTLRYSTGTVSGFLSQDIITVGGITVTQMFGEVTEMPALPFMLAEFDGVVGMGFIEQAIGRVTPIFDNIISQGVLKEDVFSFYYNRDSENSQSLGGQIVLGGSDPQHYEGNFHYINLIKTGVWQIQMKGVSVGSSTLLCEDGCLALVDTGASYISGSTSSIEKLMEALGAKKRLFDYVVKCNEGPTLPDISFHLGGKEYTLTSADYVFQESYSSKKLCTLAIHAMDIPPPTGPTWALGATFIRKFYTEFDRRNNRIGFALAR
Briefly: Plasma renin assay (angiotensin I generated in human plasma pool, RIA). Format: biochemical. As to conditions: human plasma pool as source of renin and angiotensinogen; pH 6.0; 2 h at 37°; 1% dimethylsulfoxide. As to the method: The assay is performed as follows: The test compound (i.e. the inhibitor) is dissolved in dimethylsulfoxide(1mM stock solution) and diluted with an aqueous buffer solution of 270 mM 2-(N-morpholino)ethanesulfonic acid and 1% human serum albumin (pH 5.85, also containing dimercaprol and 8-hydroxyquinoline sulfate in accordance with the instructions of the RIA kit noted below) to give an assay mixture in which the final dimethylsulfoxide content is 1% (v/v).
A human plasma pool is used as the source of both the substrate (angiotensinogen) and the enzyme (renin). The reaction is initiated by the addition of 50 μL of human plasma pool to 50 μL of various concentrations of inhibitor in the 1% dimethylsulfoxide assay buffer. The plasma renin activity is measured by the amount of angiotensin I generated at pH 6.0 following a 2 h incubation at 37°.
Quantitation of angiotensin I is performed by radioinununoassay (RIA kit from New England Nuclear-Dupont, Mississauga, ON, Canada). The enzymatic activity of renin is expressed in ng of angiotensin I generated/mL/2 h. The extent of inhibition of the reaction is determined from the amount of angiotensin I generated in reference to a control prepared without inhibitor. Nonlinear regression analysis is used to calculate the IC50 values, i.e. the molar concentration of the test compound required to cause a 50% inhibition of the enzyme activity.
The following table exemplifies results obtained for compounds of formula 1.
As usually defined, the IC50 is the concentration needed to halve the response being measured. `CC(C)C[C@H](O)[C@H](O)[C@H](CC1CCCCC1)NC(=O)[C@H](CC1CC1)[C@H](O)C[C@@H](O)Cc1ccccc1` [Title compound of example 12, (2R, 3R, 5S)-N-[1(S)-(Cyclohexylmethyl)-2(R), 3(S)-dihydroxy-5-methylhexyl]-2-(cyclopropylmethyl)-3,5-dihydroxy-6-phenylhexanamide]: the midpoint of inhibition, the IC50, lay at 1000 nM.

On to `CC(C)C[C@H](O)[C@H](O)[C@H](CC1CCCCC1)NC(=O)[C@H](CC1CC1)C[C@@H](O)[C@@H](O)Cc1ccccc1` [Title compound of example 5, (2R, 4R, 5S)-N-[1(S)-(Cyclohexylmethyl)-2(R), 3(S)-dihydroxy-5-methylhexyl]-2-(cyclopropylmethyl)-4,5-dihydroxy-6-phenylhexanamide], for which the IC50 was found to be 48 nM.

As for `CC(C)C[C@H](O)[C@H](O)[C@H](CC1CCCCC1)NC(=O)[C@H](CC1CC1)[C@@H](O)C[C@H](O)Cc1ccccc1` [Title compound of example 10, (2R,3S,5R)-N-[1(S)-(Cyclohexylmethyl)-2(R), 3(S)-dihydroxy-5-methylhexyl]-2-(cyclopropylmethyl)-3,5-dihydroxy-6-phenylhexanamide], the IC50 was 21 nM.

The compound `CC(C)C[C@H](O)[C@H](O)[C@H](CC1CCCCC1)NC(=O)[C@H](CC1CC1)[C@H](O)C[C@H](O)Cc1ccccc1` [Title compound of example 11, (2R,3R,5R)-N-[1(S)-(Cyclohexylmethyl)-2(R),3(S)-dihydroxy-5-methylhexyl]-2-(cyclopropylmethyl)-3,5-dihydroxy-6-phenylhexanamide] displayed a concentration for half-maximal inhibition (IC50) of 260 nM.

`CC(C)C[C@H](O)[C@H](O)[C@H](CC1CCCCC1)NC(=O)[C@H](CC1CC1)C[C@H](O)[C@H](O)Cc1ccccc1` [Title compound of example 4, (2R, 4S , 5R)-N-[1(S)-(Cyclohexylmethyl)-2(R), 3(S)-dihydroxy-5methylhexyl]-2-(cyclopropylmethyl)-4,5-dihydroxy-6-phenylhexanamide] returned a concentration for half-maximal inhibition (IC50) of 110 nM.

Compound `CC(C)C[C@H](O)[C@H](O)[C@H](CC1CCCCC1)NC(=O)[C@H](CC1CC1)[C@@H](O)C[C@@H](O)Cc1ccccc1` [Title compound of example 13] had a half-inhibitory concentration (IC50) of 175 nM.

In turn, `CC(C)C[C@H](O)[C@H](O)[C@H](CC1CCCCC1)NC(=O)[C@H](CC1CC1)C[C@@H](O)[C@H](O)Cc1ccccc1` [Corresponding (2R,4R,5R)-isomer of title compound of example 2] came in with an IC50 of 38 nM.

On to `CC(C)C[C@H](O)[C@H](O)[C@H](CC1CCCCC1)NC(=O)[C@H](CC1CC1)C[C@H](O)[C@@H](O)Cc1ccccc1` [Title compound of example 2, (2R, 4S, 5S)-N-[1(S)-(Cyclohexylmethyl)-2(R), 3(S)-dihydroxy-5-methylhexyl]-2-(cyclopropylmethyl)-4,5-dihydroxy-6-phenylhexanamide], for which half-maximal inhibition (IC50) required 22 nM.

The same assay, now with this note: values in parentheses in the list of other examples; assay not restated there.
For `CC(C)C[C@H](O)[C@H](O)[C@H](CC1CCCCC1)NC(=O)[C@H](Cc1cccs1)C[C@H](O)[C@@H](O)Cc1ccccc1`, the half-inhibitory concentration (IC50) worked out at 485 nM.

In the case of `Cc1nc(C[C@H](C[C@H](O)[C@@H](O)Cc2ccccc2)C(=O)N[C@@H](CC2CCCCC2)[C@@H](O)[C@@H](O)CC(C)C)cs1`, the IC50 came to 220 nM.

Take `CC(C)C[C@H](O)[C@H](O)[C@H](CC1CCCCC1)NC(=O)[C@H](Cc1cnc[nH]1)C[C@@H](O)[C@H](O)Cc1ccccc1`: the IC50 was determined as 173 nM.
